In article PMC3716607, “Inhibition of Histo-blood Group Antigen Binding as a Novel Strategy to Block Norovirus Infections” (PLoS ONE, 2013):
Read-outs that look alike come from different tables or passages of the source.

Columns and labels:
[1] = target: VA387 P dimers binding to type A and B saliva HBGAs (Norovirus GII.4 (Human calicivirus NLV/VA98387/1998), UniProt Q913Z3); assay: biochemical; parameters: species or system GII.4 NoV (VA387)
Protocol: Saliva-based NoV-HBGA binding assays were performed as described previously using P dimers of VA387 (GII.4) as NoV surrogates and saliva samples and/or synthetic oligosaccharides as HBGA sources, [34], [35]. Briefly, synthetic oligosaccharides and/or boiled saliva samples with defined HBGAs phenotype were coated on 96-well microtiter plates, after blocking with nonfat milk, P dimer of VA387 were added. The bound P dimer was detected using a guinea pig antiserum against NoVs VLPs, followed by the addition of horseradish peroxidase (HRP)-conjugated goat anti-guinea pig IgG. The bound HRP conjugates were colorized by the TMB kit (Kirkegaard & Perry Laboratories), which was read an EIA spectrum reader (Tecan). The synthetic oligosaccharide-PAA conjugates (2 µg/ml, GlycoTech Corporation, Rockville, MD) were captured to a microtiter plate through coated streptavidin (5 µg/ml).
Blocking effects of the hit compounds were measured by a pre-incubation of the P dimers with the compounds at given concentrations for 30 min before the P dimers were added to the coated saliva samples or HBGA oligosaccharides in a binding assay. The blocking activity of a compound was defined as its concentration yielding 50% inhibition (IC50) in the binding assay. IC50 calculation was performed using Probit regression analysis and correlation analysis between IC50 and Ki values was performed with nonparametric Spearman’s r (two-tailed) by using SPSS statistical software version 13.0 (SPSS, Chicago, IL).

MTS cytotoxicity assay = type: cell-based, human (HeLa); rhesus monkey (LLC-MK2)
Protocol: This assay was performed using CellTiter 96 aqueous nonradioactive cell proliferation kits (Promega, Madison, WI) as described elsewhere. Briefly, HeLa and LLC-MK2 cells were seeded at 5×10^4 cells/ml onto a 96-well plate overnight. After an incubation with each compound at various concentrations for 3 days (the compound was added one time at the beginning of the incubation), the culture medium was replaced with fresh one with 100 µl of MTS-phenazine methosulfate/well. After a further incubation at 37°C for 2 h, the color products of MTS were measured with a plate reader at 490 nm. The cytotoxicities of individual compounds were indicated by the decrease in cellular reduction of MTS into the colored product. The 50% cytotoxic concentrations (CC50 s) were determined as the concentrations of the compounds that caused 50% inhibition of cell growth compared with that of control cells without a compound.

[2] = Activity (IC50), against binding of VA387 to the A and B saliva
[3] = IC50 Saliva A, blocking assay, type A saliva, mean ± standard deviation
[4] = IC50 Saliva B, blocking assay, type B saliva, mean ± standard deviation
[5] = 3 days incubation, HeLa and LLC-MK2 cells, cell line not given, read-out: CC50

Chain of VA387 P dimers binding to type A and B saliva HBGAs (Q913Z3 entry or part of it): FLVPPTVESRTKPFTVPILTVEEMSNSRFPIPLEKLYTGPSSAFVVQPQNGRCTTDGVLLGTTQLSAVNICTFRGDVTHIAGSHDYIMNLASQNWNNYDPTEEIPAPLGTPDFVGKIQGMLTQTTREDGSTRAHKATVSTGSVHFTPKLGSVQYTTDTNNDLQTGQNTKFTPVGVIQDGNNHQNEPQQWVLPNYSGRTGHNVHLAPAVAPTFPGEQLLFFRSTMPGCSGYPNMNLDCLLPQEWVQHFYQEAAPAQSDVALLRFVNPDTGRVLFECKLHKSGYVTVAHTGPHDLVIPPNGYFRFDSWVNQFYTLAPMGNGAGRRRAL

Row | Structure (SMILES) | IC50 [1, 2] | IC50 [1, 3] | IC50 [1, 4] | other results
1 | CC12CCC(O)C=C1CCC1C2CCC2(C)C1CCC21CCC(=O)O1 (centres unmarked) [ZINC04081424] | 20 to 40 µM | – | – | –
2 | CC1(C)CC(=O)C2=C(C1)c1c(ccc3ccccc13)NC2 [ZINC00128665] | – | 14.1 ± 0.53 µM | 14.9 ± 0.71 µM | –
3 | C[C@]12CC[C@H](O)C[C@@H]1CC[C@@H]1[C@@H]2CC[C@@]2(C)[C@H]1CC[C@]2(C)O [ZINC05223451] | 1 to 10 µM | 3.37 ± 0.13 µM | 3.39 ± 0.24 µM | CC50 at 3 days (MTS cytotoxicity assay; [5]): 171 µM
4 | CC(=O)C1CCC2C3CCC4CC(O)CCC4(C)C3CCC12C (centres unmarked) [ZINC05260830] | 1 to 10 µM | – | – | CC50 at 3 days (MTS cytotoxicity assay; [5]): 267 µM
5 | CC(=O)C1=CCC2C3CC=C4CC(O)CCC4(C)C3CCC12C (centres unmarked) [ZINC00968234] | 20 to 40 µM | – | – | –
6 | CC12CCC3C(CCC4CC(=O)CCC43C)C1CCC2O (centres unmarked) [ZINC03814360] | – | 36.9 ± 1.47 µM | 35.7 ± 1.06 µM | –
7 | CC1CCc2c(sc3ncn(C(C)C(=O)N/N=C/c4c(O)ccc5ccccc45)c(=O)c23)C1 (centres unmarked) [ZINC06166484] | – | – | – | IC50 ([1]; read-out: IC50 Saliva A, blocking assay, type A saliva, mean ± standard deviation): 17 ± 1.06 µM; IC50 ([1]; read-out: IC50 Saliva B, blocking assay, type B saliva, mean ± standard deviation): 16.8 ± 0.87 µM
8 | Cc1noc2c1C1(C)CCC3C(CC=C4CC(O)CCC43C)C1C2 (centres unmarked) [ZINC04014899] | – | 33.9 ± 1.67 µM | 34.5 ± 1.93 µM | –
9 | CC12CCC(=NOCC(=O)NCC(=O)O)C=C1CCC1C2CCC2(C)C(O)CCC12 (centres unmarked) [ZINC04084183] | 10 to 20 µM | – | – | –
10 | COc1cc([N+](=O)[O-])cc2c1NC(c1ccccn1)C1CC=CC21 (centres unmarked) [ZINC04450155] | 20 to 40 µM | 24.2 ± 0.74 µM | 24.3 ± 0.87 µM | –
11 | CC(=O)OCC(=O)C1CCC2C3CC=C4CC(O)CCC4(C)C3CCC12C (centres unmarked) [ZINC00652738] | – | 30.9 ± 1.04 µM | 30.1 ± 1.35 µM | –
12 | Nc1ccc2c(c1)C1C=CCC1C(c1ccc([N+](=O)[O-])cc1)N2 (centres unmarked) [ZINC04095376] | – | 12.6 ± 0.87 µM | 12.8 ± 0.64 µM | –
13 | O=C1CC(c2ccc([N+](=O)[O-])cc2)c2ccc3ccccc3c2N1 (centres unmarked) [ZINC00124088] | – | 24.5 ± 0.98 µM | 26.3 ± 1.24 µM | –
14 | C[C@]12CCC3C(CC[C@H]4CC=CC[C@]34C)C1CC/C2=N/NC(N)=S (some centres unmarked) [ZINC04026813] | 1 to 10 µM | 8.7 ± 1.03 µM | 8.97 ± 0.63 µM | CC50 at 3 days (MTS cytotoxicity assay): 212 µM
15 | Cc1ccc(C2CC(=O)Nc3c2ccc2ccccc32)cc1[N+](=O)[O-] (centres unmarked) [ZINC00181174] | – | 33.5 ± 0.68 µM | 33.7 ± 1.27 µM | –
16 | O=[N+]([O-])c1ccc2c(c1)C1C=CCC1C(C1CC=CCC1)N2 (centres unmarked) [ZINC04725822] | – | 13.2 ± 1.04 µM | 13.1 ± 0.87 µM | –
17 | CC(CCC(=O)O)C1CCC2C3CC=C4CC(O)CCC4(C)C3CCC12C (centres unmarked) [ZINC04831336] | 1 to 10 µM | 7.63 ± 0.27 µM | 7.65 ± 0.33 µM | CC50 at 3 days (MTS cytotoxicity assay; [5]): 225 µM
18 | O=C(O)c1ccc(C2Nc3c(F)cccc3C3C=CCC32)cc1 (centres unmarked) [ZINC04298453] | – | 38 ± 2.01 µM | 39.4 ± 1.53 µM | –
19 | C/C(=N/O)C1=CCC2C3CC[C@H]4C/C(=N\O)CC[C@]4(C)C3CC[C@]12C (some centres unmarked) [ZINC04041115] | 1 to 10 µM | 2.38 ± 0.15 µM | 2.54 ± 0.21 µM | CC50 at 3 days (MTS cytotoxicity assay): 203 µM
